{"source": "patent US8759534B2", "about": "“Trimethine cyanine and its use” (Orgchem Technologies, Inc., priority 2011, dated 2014)", "data": [{"test": "Solubility in TFP", "format": "physicochemical", "details": "solvent TFP (2,2,3,3-tetrafluoro-1-propanol)", "units": {"Solubility (in TFP)": "%"}, "values": [{"smiles": "CCCN1/C(=C/C=C/C2=[N+](CCC(C)C)c3ccc4ccccc4c3C2(C)CC=CCC2(C)C(/C=C/C=C3/N(CCC)c4ccccc4C3(C)C)=[N+](CCC(C)C)c3ccc4ccccc4c32)C(C)(C)c2ccccc21", "note": "(centres unmarked) [Compound No. 34]", "Solubility (in TFP)": 4.17}, {"smiles": "CN1/C(=C/C=C/C2=[N+](C)c3ccc4ccccc4c3C2(C)Cc2ccc(Oc3ccc(CC4(C)C(/C=C/C=C5/N(C)c6ccc7ccccc7c6C5(C)Cc5ccccc5)=[N+](C)c5ccc6ccccc6c54)cc3)cc2)C(C)(Cc2ccccc2)c2c1ccc1ccccc21", "note": "(centres unmarked) [Compound No. 1]", "Solubility (in TFP)": 4.8}, {"smiles": "CN1/C(=C/C=C/C2=[N+](Cc3ccccc3)c3ccc4ccccc4c3C2(C)CC=CCC2(C)C(/C=C/C=C3/N(C)c4ccc5ccccc5c4C3(C)Cc3ccccc3)=[N+](Cc3ccccc3)c3ccc4ccccc4c32)C(C)(Cc2ccccc2)c2c1ccc1ccccc21", "note": "(centres unmarked) [Compound No. 29]", "Solubility (in TFP)": 5.3}, {"smiles": "CN1/C(=C/C=C/C2=[N+](C)c3ccc4ccccc4c3C2(C)CC=CCC2(C)C(/C=C/C=C3/N(C)c4ccc5ccccc5c4C3(C)Cc3ccccc3)=[N+](C)c3ccc4ccccc4c32)C(C)(Cc2ccccc2)c2c1ccc1ccccc21", "note": "(centres unmarked) [Compound No. 26]", "Solubility (in TFP)": 5.3}, {"smiles": "CCN1/C(=C/C=C/C2=[N+](C)c3ccc4ccccc4c3C2(C)Cc2ccc(Cc3ccc(CC4(C)C(/C=C/C=C5/N(CC)c6ccc7ccccc7c6C5(C)Cc5ccccc5)=[N+](C)c5ccc6ccccc6c54)cc3)cc2)C(C)(Cc2ccccc2)c2c1ccc1ccccc21", "note": "(centres unmarked) [Compound No. 13]", "Solubility (in TFP)": 3.6}]}]}
